Patent publication US11141495B2, “MRI imaging of amyloid plaque using liposomes” (Texas Children's Hospital, priority 2014, dated 2021)
Where two headings read alike, the source gives them in different places.

Tests used:
Aβ(1-40) fibrils [1] = biological target: T1, Aβ(1-40) fibrils (Homo sapiens, UniProt P05067); assay: Binding assay of compounds or compound-labeled liposomes with amyloid fibrils (fluorescence of washed fibrils); details: for binding to fibrils, relative fluorescence unit: at a concentration of 1 μM
T1 construct: Aβ(1-40) peptide (rPeptide, Bogart, Ga.); purchased rPeptide, Bogart, Ga
Experimental: (§1) Aβ fibrils were synthesized according to the method of Klunk et al. Ann Neurol, 2004; 55: 306-19, the entire teachings of which are incorporated herein by reference. Briefly, Aβ(1-40) peptide (rPeptide, Bogart, Ga.) was dissolved in phospho-buffered saline, pH 7.4 to a final concentration of 433 μg/mL (100 μM). The solution was stirred using a magnetic stir bar at 700 rpm for 4 h at room temperature to drive the formation of fibrils. The stock solution was aliquoted and stored at −80° C. for future use. The stock solutions were stirred thoroughly before removing aliquots for binding assays to maintain a homogenous suspension of fibrils. […]
(§2) Binding assay: The binding affinity of the compounds or compound-labeled liposomes with the amyloid fibrils was measured by following methods. Ligand-labeled liposomes, ligand stock solutions, and Chrysamine G fix competition assays were diluted with […] to 500 nM. Fibril stock solution was mixed with a stock solution of the compound or the compound-labeled liposomes in a 200 μL reaction mix to give a final concentration of fibrils (20 μM) with test compounds varying from 0.0625-20 μM. The binding mixture was incubated at room temperature for 1 h. Subsequently, the incubated binding mixture was centrifuged for 20 min at 16,400 rpm to separate the fibrils. The fibril precipitate was washed twice with Tris-HCl. Fluorescence was then measured in a Filter Max F-5 multi-mode plate reader (Molecular Devices, Sunnyvale, Calif.), using excitation and emission wavelengths of 405 nm and 535 nm, respectively. Competitive binding assays used 20 μM of fibrils, 1.0 μM test compounds and varying amounts of the non-fluorescent competitor, Chrysamine G and incubated for 1 h.
FIG. 7B is a graph showing fibril binding data and a calculated fit for estimation of the binding constant far Compound ii to fibrils at Kd=5.0 μM. FIG. 7C is a graph showing fibril binding data and a calculated fit for estimation of the binding constant for Compound iii to fibrils at Kd=5.0 μM. […] Binding to fibrils was quantified by measuring the fluorescence of the respective binding agent to washed fibrils. The data was fitted to a monolayer binding equation; Kd=1/Kb.

Aβ(1-40) fibrils [2] = biological target: T1, Aβ(1-40) fibrils; assay: Competitive binding assay to fibrils versus Chrysamine G; details: for % bound to fibrils in competition with Chrysamine-G: Chrysamine-G concentration of 1 μM, 20 μM fibrils, 1.0 μM test compound
Experimental: as §1, §2

amyloid plaques = assay: Fluorescent staining of human AD frontal cortex tissue sections; details: frontal cortex of an AD autopsy case; 1 mM, 2 hours
Experimental: (§3) Compound iii solutions in PBS were incubated with frontal cortex tissue obtained from autopsy of an AD patient (the University of Kentucky Institutional Review Board approved the use of human tissue for the study; informed consent was obtained prior to autopsy) and a 12.3 year old canine. Both the human and canine tissues had Alzheimer's amyloid pathology confirmed from previous studies. 50 μm thick free-floating sections were mounted on slides and allowed to dry overnight. Slides were then washed in PBS (3×5 min) and incubated in Compound iii solution (1 mM) for 2 hours and then again washed 3×5 min in PBS, and coverslipped in Vectashield mounting medium with […] (Vector Laboratories, Burlingame, Calif.). Sections were imaged on an Olympus BX-51 microscope with a broadpass filter (Olympus Corporation of the Americas, Center Valley, Pa.).

[3] = test system: cerebral amyloid angiopathy; assay: Fluorescent staining of aged dog frontal cortex tissue sections; details: 12.3 year old canine, 1 mM, 2 hours
Experimental: as §3

T1 sequence (P05067 672-711): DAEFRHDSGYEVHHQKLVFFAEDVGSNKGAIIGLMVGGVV

binding to fibrils, relative fluorescence unit (Aβ(1-40) fibrils [1]; 20 μM fibrils) | % bound to fibrils in competition with Chrysamine-G (Aβ(1-40) fibrils [2]) | bound species displaced by Chrysamine G (Aβ(1-40) fibrils [2]) [%] | Kd (Aβ(1-40) fibrils [1]; 20 μM fibrils, read-out: Kd, binding constant to fibrils (calculated fit, monolayer binding equation)) [µM] | SMILES | Kd (Aβ(1-40) fibrils [1]) [µM] | staining of amyloid plaques in human brain tissue (amyloid plaques) | labeling of cerebral amyloid angiopathy in aged dog brain tissue [3]
less than 100 k RFU | about 20% | > 80 | – | COc1cc(/C=C/c2ccc(O)cc2)ccc1/C=C/c1ccc(O)cc1 [MeXO4, reference compound] | – | – | –
35 m RFU | about 45% | – | 5 | CN(CCO)c1ccc(/C=C/c2ccncn2)cc1 [Compound ii, (E)-2-{methyl[4-(2-(pyrimidin-4-yl)vinyl)phenyl]amino}ethanol] | – | – | –

SMILES | binding to fibrils, relative fluorescence unit (Aβ(1-40) fibrils [1]; 20 μM fibrils) | % bound to fibrils in competition with Chrysamine-G (Aβ(1-40) fibrils [2]) | bound species displaced by Chrysamine G (Aβ(1-40) fibrils [2]) [%] | Kd (Aβ(1-40) fibrils [1]; 20 μM fibrils, read-out: Kd, binding constant to fibrils (calculated fit, monolayer binding equation)) [µM] | Kd (Aβ(1-40) fibrils [1]) [µM] | staining of amyloid plaques in human brain tissue (amyloid plaques) | labeling of cerebral amyloid angiopathy in aged dog brain tissue [3]
OCCN(CCO)c1ccc(/C=C/c2ccncn2)cc1 [Compound iii, (E)-2,2′-{[4-(2-(pyrimidin-4-yl)vinyl)phenyl]azanediyl}diethanol] | 400 k RFU | about 55% | – | – | 5 | specifically stains amyloid plaques | labels cerebral amyloid angiopathy
